Columns and labels:
NgGCYH-IB [1] = target: T1, NgGCYH-IB (Neisseria gonorrhoeae, UniProt Q5F9K6); test: Inhibition of NgGCYH-IB enzyme activity; format: biochemical, N. gonorrhoeae; settings: in words
NgGCYH-IB [2] = target: T1, NgGCYH-IB; settings: read-out: KM of NgGCYH-IB for GTP; cited from earlier work
HsGCYH-IA = target: T2, HsGCYH-IA (Homo sapiens, UniProt P30793); test: Steady-state kinetic analysis of HsGCYH-IA; format: biochemical, H. sapiens; settings: read-out: KM of HsGCYH-IA for GTP; fluorescence assay, GTP as substrate
T2 sequence (P30793 43-250 limits assumed): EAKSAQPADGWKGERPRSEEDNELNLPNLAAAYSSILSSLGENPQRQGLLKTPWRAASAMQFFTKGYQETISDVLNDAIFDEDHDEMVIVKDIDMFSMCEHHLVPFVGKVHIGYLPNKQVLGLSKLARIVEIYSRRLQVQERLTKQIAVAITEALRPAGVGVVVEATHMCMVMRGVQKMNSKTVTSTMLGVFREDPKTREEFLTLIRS

T1 sequence (Q5F9K6 whole entry): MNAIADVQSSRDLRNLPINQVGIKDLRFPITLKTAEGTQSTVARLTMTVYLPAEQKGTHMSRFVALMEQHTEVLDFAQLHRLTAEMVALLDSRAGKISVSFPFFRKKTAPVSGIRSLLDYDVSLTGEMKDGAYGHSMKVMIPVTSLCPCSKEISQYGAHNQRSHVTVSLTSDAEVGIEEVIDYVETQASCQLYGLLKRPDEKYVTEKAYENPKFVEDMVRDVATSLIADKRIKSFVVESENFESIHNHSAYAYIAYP

Compound | Selectivity between HsGCYH-IA and NgGCYH-IB from IC50 values (NgGCYH-IB [1]) | Km (NgGCYH-IB [2]) [µM] | Km (HsGCYH-IA) [µM]
Nc1nc(OCCO)c2[nH]c(=O)n([C@@H]3O[C@H](CO)[C@@H](O)[C@H]3O)c2n1 [G1] | modest selectivity for HsGCYH-IA |  | 
Nc1nc(OC[C@H](O)CO)c2[nH]c(=O)n([C@@H]3O[C@H](CO)[C@@H](O)[C@H]3O)c2n1 [G3] | three-fold more potent against NgGCYH-IB |  | 
Nc1nc2c(ncn2[C@@H]2O[C@H](COP(=O)(O)OP(=O)(O)OP(=O)(O)O)[C@@H](O)[C@H]2O)c(=O)[nH]1 [GTP] |  | 9 | 867 ± 57
